Results taken from publication PMC10675340, “Preparation, Radiolabeling with ^68Ga/^177Lu and Preclinical Evaluation of Novel Angiotensin Peptide Analog: A New Class of Peptides for Breast Cancer Targeting” (Pharmaceuticals, 2023).
Where two headings read alike, the source gives them in different places. Where a SMILES comes first, the peptide text is derived from it. [ ]: non-standard residue; d: D form. The star is where a group is joined. DOTA = O=C(O)CN1CCN(CC(=O)O)CCN(CC(=O)*)CCN(CC(=O)O)CC1; βAla = NCCC(=O)O

How the values were obtained:
[1] = In vivo tumor targeting and biodistribution in nude mice bearing MDA-MB-231 xenografts; set-up: species or system mouse; conditions: mouse, total radioactivity
Experimental: (§1) (with 43% wash away from the tumors over 2 h). The amount of radioactivity found for the ^68Ga-labeled AngII peptide analog in the tumors was always more than the radioactivity detected in the blood and muscle. A general pattern of better tumor-to-blood and tumor-to-muscle uptake ratios was noticed over time for ^68Ga-labeled AngII peptide.
(§2) In vivo, tumor uptake was conducted as reported previously. In summary, ~5 million MDA-MB-231 cells in 200 µL sterile PBS were implanted subcutaneously into each nude mouse. Once tumor growth became sufficient (~50–500 mg), tumor uptake and organ biodistribution were carried out after injecting the radiolabeled AngII peptide. The percent of the injected dose per gram in the tumors was determined by using a custom-designed Quattro Pro X9 spreadsheet (Corel Corporation, Austin, TX, USA).

[2] = test system: MDA-MB-231 tumor xenografts; assay: as above; set-up: species or system mouse
Experimental: as §1, §2

[3] = In vivo receptor-blocking study in nude mice bearing MDA-MB-231 xenografts; conditions: mouse, total radioactivity, nude mice with MDA-MB-231 xenografts, 2 h p.i., co-injected ~100 µg unlabeled AngII peptide analog, mean ± SD
Experimental: (§3) To validate the selectivity of the AngII peptide analog for its intended target AT1 receptors, we performed a receptor-blocking assay by administering a blocking dose of ~100 μg of unlabeled AngII peptide premixed with the radiolabeled AngII peptide analog at 2 h p.i. […] Furthermore, a varying influence pattern of the pharmacological receptor blocking dose was detected mainly in the intestines, heart, and kidneys as the uptake in these organs was reduced to variable degrees depending on the degree of AT1 receptor expression by these organs and tissues (Table 2).
(§4) For the receptor-blocking study, an additional group of mice was injected with the radiolabeled AngII peptide premixed with unlabeled AngII peptide (~100 μg) to serve as a receptor-blocking agent. In vivo, biodistribution and blocking studies were performed at 2 h p.i. as stated before.

AT1 receptor = assay: as above; conditions: mouse, total radioactivity, 2 h p.i., co-injected ~100 µg unlabeled AngII peptide analog, mean ± SD
Experimental: as §3, §4

athymic nude mice = assay: In vivo metabolic stability (radio-HPLC of mouse urine); conditions: urine collected at 2 h p.i.
Experimental: Athymic nude mice were utilized for the metabolism study to determine the potential radio-metabolites in the urine. An aliquot of urine sample was collected by manual void at the time of sacrifice and analyzed by radio-HPLC. […] The results signified that most of the radioactivity (>80%) was still bound to the ^68Ga-AngII peptide analog (Figure 2). There were no major metabolites detected in the urine sample at 2 h p.i. A small hydrophilic metabolite peak was found at about 4 min for the urine sample. This finding confirms that the ^68Ga-AngII peptide analog is not prone to fast in vivo disintegration and is also in agreement with the results of high in vitro complex strength.
To determine the radio-metabolites of the ^68Ga-labeled AngII peptide analog, an aliquot of urine sample was collected by manual void at the time of sacrifice and mixed with an equal volume of CH3CN. The mixture was centrifuged at 7000 rpm for 5 min. The resulting supernatant was collected and passed through a 0.20 μm Millex-LG filter unit to remove any precipitate or foreign particles and then analyzed by radio-HPLC.

tissue uptake at 0.75 h ([1]; blood, nude mice with MDA-MB-231 xenografts, 45 min p.i., mean ± SD, n = 4-6, read-out: Blood uptake): 0.55 ± 0.12 %ID/g | tissue uptake at 2 h ([1]; blood, nude mice with MDA-MB-231 xenografts, 2 h p.i., mean ± SD, n = 4-6, read-out: Blood uptake): 0.22 ± 0.1 %ID/g | tissue uptake at 0.75 h ([1]; heart, nude mice with MDA-MB-231 xenografts, 45 min p.i., mean ± SD, n = 4-6, read-out: Heart uptake): 0.88 ± 0.3 %ID/g | tissue uptake at 2 h ([1]; heart, nude mice with MDA-MB-231 xenografts, 2 h p.i., mean ± SD, n = 4-6, read-out: Heart uptake): 0.65 ± 0.19 %ID/g | tissue uptake at 0.75 h ([1]; intestines without contents, nude mice with MDA-MB-231 xenografts, 45 min p.i., mean ± SD, n = 4-6, read-out: Intestines uptake (portion without contents)): 1.2 ± 0.35 %ID/g | tissue uptake at 2 h ([1]; intestines without contents, nude mice with MDA-MB-231 xenografts, 2 h p.i., mean ± SD, n = 4-6, read-out: Intestines uptake (portion without contents)): 1.05 ± 0.31 %ID/g | tissue uptake at 0.75 h ([1]; kidneys, nude mice with MDA-MB-231 xenografts, 45 min p.i., mean ± SD, n = 4-6, read-out: Kidneys uptake): 4.89 ± 1.97 %ID/g | tissue uptake at 2 h ([1]; kidneys, nude mice with MDA-MB-231 xenografts, 2 h p.i., mean ± SD, n = 4-6, read-out: Kidneys uptake): 3.97 ± 1.2 %ID/g | tissue uptake at 0.75 h ([1]; liver, nude mice with MDA-MB-231 xenografts, 45 min p.i., mean ± SD, n = 4-6, read-out: Liver uptake): 0.77 ± 0.22 %ID/g | tissue uptake at 2 h ([1]; liver, nude mice with MDA-MB-231 xenografts, 2 h p.i., mean ± SD, n = 4-6, read-out: Liver uptake): 0.65 ± 0.28 %ID/g | tissue uptake at 0.75 h ([1]; lungs, nude mice with MDA-MB-231 xenografts, 45 min p.i., mean ± SD, n = 4-6, read-out: Lungs uptake): 0.57 ± 0.16 %ID/g | tissue uptake at 2 h ([1]; lungs, nude mice with MDA-MB-231 xenografts, 2 h p.i., mean ± SD, n = 4-6, read-out: Lungs uptake): 0.39 ± 0.15 %ID/g | tissue uptake at 0.75 h ([1]; muscle/bone, nude mice with MDA-MB-231 xenografts, 45 min p.i., mean ± SD, n = 4-6, read-out: Muscle/bone uptake): 0.4 ± 0.17 %ID/g | tissue uptake at 2 h ([1]; muscle/bone, nude mice with MDA-MB-231 xenografts, 2 h p.i., mean ± SD, n = 4-6, read-out: Muscle/bone uptake): 0.19 ± 0.1 %ID/g | tissue uptake at 0.75 h ([1]; pancreas, nude mice with MDA-MB-231 xenografts, 45 min p.i., mean ± SD, n = 4-6, read-out: Pancreas uptake): 0.47 ± 0.11 %ID/g | tissue uptake at 2 h ([1]; pancreas, nude mice with MDA-MB-231 xenografts, 2 h p.i., mean ± SD, n = 4-6, read-out: Pancreas uptake): 0.29 ± 0.05 %ID/g | tissue uptake at 0.75 h ([1]; spleen, nude mice with MDA-MB-231 xenografts, 45 min p.i., mean ± SD, n = 4-6, read-out: Spleen uptake): 0.39 ± 0.08 %ID/g | tissue uptake at 2 h ([1]; spleen, nude mice with MDA-MB-231 xenografts, 2 h p.i., mean ± SD, n = 4-6, read-out: Spleen uptake): 0.24 ± 0.05 %ID/g | tissue uptake at 0.75 h ([1]; stomach, nude mice with MDA-MB-231 xenografts, 45 min p.i., mean ± SD, n = 4-6, read-out: Stomach uptake): 0.34 ± 0.1 %ID/g | tissue uptake at 2 h ([1]; stomach, nude mice with MDA-MB-231 xenografts, 2 h p.i., mean ± SD, n = 4-6, read-out: Stomach uptake): 0.3 ± 0.08 %ID/g | tissue uptake at 0.75 h ([1]; tumor (MDA-MB-231 xenograft), MDA-MB-231 tumor in nude mice, 45 min p.i., mean ± SD, n = 4-6, read-out: Tumor uptake): 2.18 ± 0.66 %ID/g | tissue uptake at 2 h ([1]; tumor (MDA-MB-231 xenograft), MDA-MB-231 tumor in nude mice, 2 h p.i., unblocked, mean ± SD, n = 4-6, read-out: Tumor uptake): 1.25 ± 0.37 %ID/g | tissue to tissue ratio at 2 h ([1]; tumor / muscle, nude mice with MDA-MB-231 xenografts, 2 h p.i., read-out: Tumor/muscle uptake ratio): 6.58 | tissue to tissue ratio at 0.75 h ([1]; tumor/blood, nude mice with MDA-MB-231 xenografts, 45 min p.i., read-out: Tumor/blood uptake ratio): 3.96 | tissue to tissue ratio at 2 h ([1]; tumor/blood, nude mice with MDA-MB-231 xenografts, 2 h p.i., read-out: Tumor/blood uptake ratio): 5.68 | tissue to tissue ratio at 0.75 h ([1]; tumor/muscle, nude mice with MDA-MB-231 xenografts, 45 min p.i., read-out: Tumor/muscle uptake ratio): 5.45 | dose excreted at 0.75 h ([1]; urine with bladder contents, nude mice with MDA-MB-231 xenografts, 45 min p.i., mean ± SD, n = 4-6, read-out: Urine + Bladder (urinary excretion)): 49.9 ± 10.9% | dose excreted at 2 h ([1]; urine with bladder contents, nude mice with MDA-MB-231 xenografts, 2 h p.i., mean ± SD, n = 4-6, read-out: Urine + Bladder (urinary excretion)): 55 ± 8.79% | Wash away from the tumors ([2]; MDA-MB-231 tumors in nude mice, over 2 h (45 min vs 2 h p.i.)): 43% | Clearance through the hepatobiliary system (liver + intestines) ([2]; tumor-bearing nude mice): below 7 % ID | tissue uptake at 2 h ([3]; blood, intravenous, read-out: Blood uptake, blocked): 0.85 ± 0.2 %ID/g | tissue uptake at 2 h ([3]; liver, read-out: Liver uptake, blocked): 0.85 ± 0.24 %ID/g | tissue uptake at 2 h ([3]; lungs, intravenous, read-out: Lungs uptake, blocked): 0.89 ± 0.35 %ID/g | tissue uptake at 2 h ([3]; pancreas, read-out: Pancreas uptake, blocked): 0.54 ± 0.12 %ID/g | tissue uptake at 2 h ([3]; spleen, intravenous, read-out: Spleen uptake, blocked): 0.35 ± 0.09 %ID/g | tissue uptake at 2 h ([3]; stomach, read-out: Stomach uptake, blocked): 0.49 ± 0.18 %ID/g | tissue uptake at 2 h (AT1 receptor; heart, intravenous, nude mice with MDA-MB-231 xenografts, read-out: Heart uptake, blocked): 0.23 ± 0.1 %ID/g | tissue uptake at 2 h (AT1 receptor; intestines without contents, nude mice with MDA-MB-231 xenografts, read-out: Intestines uptake (portion without contents), blocked): 0.8 ± 0.2 %ID/g | tissue uptake at 2 h (AT1 receptor; kidneys, intravenous, nude mice with MDA-MB-231 xenografts, read-out: Kidneys uptake, blocked): 2.01 ± 0.87 %ID/g | tissue uptake at 2 h (AT1 receptor; muscle/bone, nude mice with MDA-MB-231 xenografts, read-out: Muscle/bone uptake, blocked): 0.24 ± 0.1 %ID/g | tissue uptake at 2 h (AT1 receptor; tumor (MDA-MB-231 xenograft), MDA-MB-231 tumor in nude mice, read-out: Tumor uptake, blocked): 0.6 ± 0.27 %ID/g | dose excreted at 2 h (AT1 receptor; urine with bladder contents, intravenous, nude mice with MDA-MB-231 xenografts, read-out: Urine + Bladder (urinary excretion), blocked): 43.5 ± 7.9% | Radioactivity still bound to the radiopeptide in urine (athymic nude mice): > 80%
Structure (SMILES): CC[C@H](C)[C@H](NC(=O)[C@H](Cc1ccc(O)cc1)NC(=O)[C@@H](NC(=O)[C@H](CCCNC(=N)N)NC(=O)[C@H](CC(=O)O)NC(=O)CCNC(=O)[C@H](CCCCN)NC(=O)CN1CCN(CC(=O)O)CCN(CC(=O)O)CCN(CC(=O)O)CC1)C(C)C)C(=O)N[C@@H](Cc1c[nH]cn1)C(=O)N1CCC[C@H]1C(=O)N[C@@H](Cc1ccccc1)C(=O)N[C@@H](Cc1c[nH]c2ccccc12)C(=O)N[C@@H](CCCCN)C(=O)N[C@@H](Cc1ccc(O)cc1)C(N)=O [^68Ga-DOTA-AngII peptide, metal not drawn] ({DOTA}-K[βAla]DRVYIHPFWKY-NH2)
